According to patent publication US20120270929A1, “MODULATION OF TTC39 EXPRESSION TO INCREASE HDL” (ISIS Pharmaceuticals, Inc., priority 2009, published 2012):
Oligonucleotides are written 5' to 3', each unit as a sugar letter and its base; * is a phosphorothioate linkage, no mark a phosphodiester; rarer units and linkages stand in square brackets, end groups in braces. Plain capitals give the bases only. e = 2'-O-(2-methoxyethyl) (MOE); [5mC] = 5-methylcytosine; d = 2'-deoxy (DNA)

Legend:
murine TTC39B mRNA [1] = assay: In vivo antisense inhibition of murine TTC39B mRNA in liver of C57BL/6 mice; set-up: species or system mouse; conditions: 50 mg/kg/week, 6 weeks, relative to PBS control
Method: (§1) Four groups of five mice each were injected twice a week with 25 mg/kg (totaling 50 mg/kg/week) of ISIS 447114, ISIS 447118, ISIS 447143, or ISIS 447144 for 6 weeks. A control group of five mice was injected with phosphate buffered saline (PBS) twice a week for 6 weeks. Plasma samples were obtained before the start of treatment, at week 3 and at week 6. At the end of the treatment period, mice were fasted for 4 hours before being euthanized. Plasma and tissue samples were obtained for further analysis.
RNA was extracted from liver tissue for real-time PCR analysis of TTC39B using murine primer probe set mTtc39b_LTS00287. […] Results are presented as an average of the percent inhibition of TTC39B, relative to control.

apoA1 mRNA = apoA1 mRNA levels in C57BL/6 mice after TTC39B inhibition; assay type: in vivo, mouse; conditions: 50 mg/kg/week, 6 weeks
Method: as §1
The effect of inhibition of TTC39B in mice on these proteins of reverse cholesterol transport was studied. RNA levels of ABCA1 were measured using murine primer probe set RTS1204 (forward sequence […], designated herein as SEQ ID NO: 97; reverse sequence […], designated herein as SEQ ID NO: 98; and probe sequence […], designated herein as SEQ ID NO: 99). RNA levels of apoA1 were measured using murine primer probe set RTS14737 (forward sequence […], designated herein as SEQ ID NO: 100; reverse sequence […], designated herein as SEQ ID NO: 101; and probe sequence […], designated herein as SEQ ID NO: 102). RNA levels of SRB1 were measured using murine primer probe set mSRB-1 (forward sequence […], designated herein as SEQ ID NO: 103; reverse sequence ATGCGACTTGTCAGGCTGG, designated herein as SEQ ID NO: 104; and probe sequence […], designated herein as SEQ ID NO: 105).

PCSK9 mRNA = PCSK9 mRNA levels in C57BL/6 mice; assay type: in vivo, mouse; conditions: 50 mg/kg/week, 6 weeks, compared to PBS control
Method: as §1
The effect of inhibition of TTC39B in mice on cholesterol homeostasis was studied. PCSK9 mRNA levels were measured using the murine primer probe set mPCSK9 (forward sequence ACCGACTTCAACAGCGTGC, designated herein as SEQ ID NO: 106; reverse sequence GGCTGTCACACTTGCTCGC, designated herein as SEQ ID NO: 107, probe sequence AGGATGGGACACGCTTCCACAGACAX, wherein X is a fluorophore, designated herein as SEQ ID NO: 108). LDLR mRNA levels were measured using the murine primer probe set mLDLR (forward sequence GACCGCAGCGAGTACACCA, designated herein as SEQ ID NO: 109; reverse sequence TCACCTCCGTGTCGAGAGC, designated herein as SEQ ID NO: 110, probe sequence […], designated herein as SEQ ID NO: 111). The results are presented as percentage inhibition compared to the PBS control.

murine TTC39B mRNA [2] = assay: Dose-dependent antisense inhibition of murine TTC39B in mouse primary hepatocytes (Example 3); assay type: cell-based; conditions: cytofectin, ~16 h
Method: Cells were plated at a density of 10,000 cells per well and transfected using cytofectin reagent with 6.25 nM, 12.5 nM, 25 nM, 50 nM, 100 nM, and 200 nM concentrations of antisense oligonucleotide, as specified in Table 4. After a treatment period of approximately 16 hours, RNA was isolated from the cells and TTC39B mRNA levels were measured by quantitative real-time PCR. Murine primer probe set mTtc39b_LTS00287 was used to measure mRNA levels. TTC39B mRNA levels were adjusted according to total RNA content, as measured by RIBOGREEN®. Results are presented as percent inhibition of TTC39B, relative to untreated control cells.

APOA1 plasma protein = APOA1 plasma protein levels in C57BL/6 mice; assay type: in vivo, mouse; set-up: APOA1 plasma protein levels: unit not given here; conditions: for APOA1 plasma protein % change over the baseline: 6 weeks
Method: as §1

murine TTC39B mRNA [3] = assay: Antisense inhibition of murine TTC39B in mouse primary hepatocytes, single dose; assay type: cell-based; conditions: 100 nM, cytofectin, ~24 h, vs untreated control; gapmers targeted to SEQ ID NO: 6
In short: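 Mouse primary hepatocytes transfected by cytofectin with 100 nM 5-10-5 MOE gapmer (20-mer, phosphorothioate, 5-methylcytosine) for ~24 h. TTC39B mRNA quantified by real-time qPCR, normalized to RIBOGREEN total RNA. Values given as percent inhibition versus untreated cells.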

[4] = Plasma glucose in C57BL/6 mice (glucose oxidase assay); assay type: in vivo, mouse
Method: as §1
Plasma glucose values were determined using a Beckman Glucose Analyzer II (Beckman Coulter) by a glucose oxidase assay. As presented in Table 14, there was no significant change in glucose levels after treatment with ISIS oligonucleotides.

[5] = Week 0 (before treatment), 50 mg/kg/week

Sequence | % inhibition of TTC39B mRNA in liver (murine TTC39B mRNA [1]) | apoA1 mRNA levels (effect of TTC39B inhibition) (apoA1 mRNA) | Percent inhibition PCSK9 mRNA levels (PCSK9 mRNA) | percent inhibition of TTC39B mRNA (murine TTC39B mRNA [2]; 6.25 nM) | percent inhibition of TTC39B mRNA (murine TTC39B mRNA [2]; 12.5 nM) | percent inhibition of TTC39B mRNA (murine TTC39B mRNA [2]; 25.0 nM) | percent inhibition of TTC39B mRNA (murine TTC39B mRNA [2]; 50.0 nM) | percent inhibition of TTC39B mRNA (murine TTC39B mRNA [2]; 100.0 nM) | percent inhibition of TTC39B mRNA (murine TTC39B mRNA [2]; 200.0 nM) | APOA1 plasma protein % change over the baseline (APOA1 plasma protein; 50 mg/kg/week) | APOA1 plasma protein levels (APOA1 plasma protein; [5]) | APOA1 plasma protein levels (APOA1 plasma protein; Week 3, 50 mg/kg/week) | APOA1 plasma protein levels (APOA1 plasma protein; Week 6, 50 mg/kg/week) | % inhibition of murine TTC39B mRNA (murine TTC39B mRNA [3]) | glucose levels [4, 5] | glucose levels ([4]; Week 3, 50 mg/kg/week) | glucose levels ([4]; Week 6, 50 mg/kg/week) | apoA1 mRNA levels (effect of TTC39B inhibition) (apoA1 mRNA; 50 mg/kg) | apoA1 mRNA levels (effect of TTC39B inhibition) (apoA1 mRNA; listed as 447143, 50 mg/kg) | apoA1 mRNA levels (effect of TTC39B inhibition) (apoA1 mRNA; listed as 447144, 50 mg/kg)
CGGATGATTCTTGCTGGTAA (antisense e[5mC]*eG*eG*eA*eT*dG*dA*dT*dT*d[5mC]*dT*dT*dG*d[5mC]*dT*eG*eG*eT*eA*eA) [ISIS 447114] | 49% | −14 | 24% | 6% | 5% | 34% | 71% | 90% | 93% | +122% | +9 | +12 | +22 | 73% | 293 mg/dL | 229 mg/dL | 232 mg/dL | – | – | –
GCAGCTCGATTCGGGCATGA (antisense eG*e[5mC]*eA*eG*e[5mC]*dT*d[5mC]*dG*dA*dT*dT*d[5mC]*dG*dG*dG*e[5mC]*eA*eT*eG*eA) [ISIS 447118] | 73% | −23 | 45% | 0% | 24% | 45% | 66% | 77% | 81% | +88% | +9 | +13 | +18 | 76% | 242 mg/dL | 271 mg/dL | 238 mg/dL | – | – | –
GCCACCAGTGCCTGCTGAGC (antisense eG*e[5mC]*e[5mC]*eA*e[5mC]*d[5mC]*dA*dG*dT*dG*d[5mC]*d[5mC]*dT*dG*d[5mC]*eT*eG*eA*eG*e[5mC]) [ISIS 447143] | 85% | – | 65% | 7% | 25% | 44% | 72% | 88% | 94% | +108% | +10 | +15 | +20 | 74% | 238 mg/dL | 231 mg/dL | 241 mg/dL | average increase | +1 | –
TATTTCTATAGCTCATGACA (antisense eT*eA*eT*eT*eT*d[5mC]*dT*dA*dT*dA*dG*d[5mC]*dT*d[5mC]*dA*eT*eG*eA*e[5mC]*eA) [ISIS 447144] | 70% | – | 19% | – | – | – | – | – | – | +108% | +10 | +14 | +20 | 69% | 222 mg/dL | 239 mg/dL | 235 mg/dL | average increase | – | +50
